Data taken from US10793561B2, “1,8-naphthyridinone compounds and uses thereof” (NUVATION BIO INC., priority 2017, dated 2020).

Tests used:
[1] = target: T1, adenosine A2A receptor (Homo sapiens (Human), UniProt P29274); assay: cAMP assay in HEK-293 cells expressing human recombinant adenosine A2A receptor; format: cell-based; settings: for inhibition at 0.1 µM: 100 nM compound, read-out: A2a cAMP % inh @ 100 nM; for IC50: first cAMP table
Experimental: The functional activity of compounds was tested using one of the two assays to detect the present of cAMP. Activation of G-protein coupled receptors (such as A2A) results in activation of adenylcyclase which converts ATP into cAMP which is used as a downstream signaling molecule. Therefore, molecules which act as GPCR (or specifically A2A receptor) antagonists cause a decrease in intracellular cAMP concentration.
Both assays used HEK-293 cells expressing human recombinant adenosine A2A receptor were grown prior to the test in media without antibiotic. Assay 1: The cells were detached by gentle flushing with PBS-EDTA (5 mM EDTA), recovered by centrifugation and suspended in assay buffer (KRH: 5 mM KCl, 1.25 mM MgSO4, 124 mM NaCl, 25 mM HEPES, 13.3 mM Glucose, 1.25 mM KH2PO4, 1.45 mM CaCl2, 0.5 g/L BSA, supplemented with Rolipram).
12 μL of cells were mixed with 6 μL of the test compound at increasing concentrations and then incubated for 10 min. Thereafter 6 μL of the reference agonist was added at a final concentration corresponding to the historical EC80. The plates were then incubated for 30 min at room temperature. After addition of the lysis buffer and 1 hour incubation, cAMP concentrations were estimated, according to the manufacturer specification, with the HTRF® kit.
Assay 2: 100 nL of test articles at 100× of final concentration were transferred to assay plate by Echo. Cells were washed twice with 5 mL of PBS […]. After aspirating the PBS and adding 1.5 mL versine, cells were incubated at 37° C. for 2-5 min. After centrifugation, 4 mL of medium was added and adjusted cell density to 5,000 cells/well with stimulation buffer. 10 μL of cells were aliquoted to the assay plate, centrifuged at 1000 rpm for 1 minute, and incubated for 60 minutes at room temperature. 5 μL 4× Eu-cAMP tracer solution and 5 μL 4× Ulight™-anti-cAMP solution were added to assay plate, followed by centrifugation and 60-minute incubation at room temperature. Plates were read on EnVision.

[2] = target: adenosine A3 receptor (Homo sapiens (Human), UniProt P0DMS8); assay: Radioligand binding competition assay, adenosine A3 receptor (CHO-K1-A3 cell membranes); settings: 300 nM compound
Chain of adenosine A3 receptor (P0DMS8 whole entry): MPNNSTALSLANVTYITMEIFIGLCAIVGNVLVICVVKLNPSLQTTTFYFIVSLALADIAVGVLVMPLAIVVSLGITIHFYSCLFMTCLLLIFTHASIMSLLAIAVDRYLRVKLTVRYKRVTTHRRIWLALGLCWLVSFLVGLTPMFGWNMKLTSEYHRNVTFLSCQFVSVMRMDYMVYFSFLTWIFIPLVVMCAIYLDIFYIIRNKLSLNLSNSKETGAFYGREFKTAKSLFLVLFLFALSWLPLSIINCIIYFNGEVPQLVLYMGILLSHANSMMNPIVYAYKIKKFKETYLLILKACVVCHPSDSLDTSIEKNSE
Experimental: (§1) Binding of selected compounds to the adenosine A1, A2A, A2B, and A3 receptors was tested using a binding competition assay.
(§2) The general protocol for the radioligand binding competition assay was as follows. Competition binding was performed in duplicate in the wells of a 96 well plate (Master Block, Greiner, 786201) containing binding buffer (optimized for each receptor), membrane extracts (amount of protein/well optimized for each receptor), radiotracer (final concentration optimized for each receptor), and test compound. Nonspecific binding was determined by co-incubation with 200-fold excess of cold competitor. The samples were incubated in a final volume of 0.1 mL at 25° C. for 60 minutes and then filtered over filter plates. Filters were washed six times with 0.5 mL of ice-cold washing buffer (optimized for each receptor) and 50 μL of Microscint 20 (Packard) were added on each filter. The filter plates were sealed, incubated 15 min on an orbital shaker and scintillation counted with a TopCount for 30 sec/filter.
For the adenosine A3 radioligand binding competition assay, the following reagents were used:
(§3) CHO-K1-A3 cell membranes, 1.5 μg/well; a binding buffer comprising HEPES 25 mM pH 7.4, MgCl2 5 mM, CaCl2 1 mM, 0.5% BSA; a wash buffer comprising HEPES 25 mM pH 7.4, MgCl2 5 mM, CaCl2 1 mM; a Unifilter GF/C—treated for 2 h with 0.5% BS; and 0.4 nM of ^125I-AB-MECA as the tracer. The results of the binding assay are shown in Table B1-1 and are shown as percent residual binding at a given concentration. Percent of residual binding means binding of a compound in the presence of competitor normalized to the amount of binding in the absence of competitor. […] For example, compound 1 strongly bound to A2A (30% residual binding at a concentration of 100 nM), A1 (−3% residual binding at 300 nM) and A2B, (−9% residual binding at 300 nM) but weakly bound to A3 (96% residual binding at 300 nM).

[3] = target: T1, adenosine A2A receptor; assay: Radioligand binding competition assay, adenosine A2A receptor; settings: for A2A radioligand binding competition assay % residual binding @ 100 nM: 100 nM compound; for A2A radioligand binding competition assay % residual binding @ 300 nM: 300 nM compound; for A2A radioligand binding competition assay % residual binding @ 1000 nM: 1000 nM compound
Experimental: as §1, §2
For the adenosine A2A receptor radioligand binding assay, the following modifications were made to the general protocol. GF/C filters (Perkin Elmer, 6005174), presoaked in 0.01% Brij for 2 h at room temperature were used. Filters were washed six times with 0.5 mL of ice-cold washing buffer (50 mM Tris pH 7.4) and 50 μL of Microscint 20 (Packard) was added in each well. The plates were then incubated for 15 min on an orbital shaker and then counted with a TopCount™ for 1 min/well.
Another radioligand binding assay was used to evaluate the binding affinity for the adenosine A2A receptor assay was performed in duplicate in the wells of a 384 plate. Assay buffer contained DPBS 500 mM, MgCl2 0.1 mM, and 1% DMSO. Membrane-bead suspension was prepared by mixing 25.98 μL of human adenosine A2A membrane preparation (Perkin Elmer, RBHA2AM400UA) at 33.4 pg/mL, 28 μL of ADA at 20 pg/mL, and 932 μL of SPA beads at 3.33 mg/mL) and incubated the mixture for 20 min at room temperature. Mixed 20 μL of radiotracer (^3H-SCH 58261) at 15 nM to each well containing test articles at various concentrations and centrifuge the plate at 1000 rpm for 1 minute. Added 30 μL of the membrane-bead suspension to each well. Sealed the plates and incubated for 1 hr at room temperature with vigorous mixing on a plate mixer. Plates were read on Microbeta^2 (Perkin Elmer, 2450-0010).
as §3

[4] = target: adenosine A2B receptor (Homo sapiens (Human), UniProt P29275); assay: Radioligand binding competition assay, adenosine A2B receptor (HEK-293-A2b cell membranes); settings: 300 nM compound
Chain of adenosine A2B receptor (P29275 whole entry): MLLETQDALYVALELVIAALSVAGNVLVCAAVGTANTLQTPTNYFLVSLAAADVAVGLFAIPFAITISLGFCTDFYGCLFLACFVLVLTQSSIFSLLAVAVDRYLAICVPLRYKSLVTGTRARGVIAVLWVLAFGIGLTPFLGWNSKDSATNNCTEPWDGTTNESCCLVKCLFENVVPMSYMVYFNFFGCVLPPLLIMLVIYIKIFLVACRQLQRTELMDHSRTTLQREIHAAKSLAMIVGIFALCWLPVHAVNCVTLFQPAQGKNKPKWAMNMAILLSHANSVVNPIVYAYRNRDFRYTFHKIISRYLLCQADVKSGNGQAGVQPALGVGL
Experimental: as §1, §2
Similarly, the following reagents were used for the adenosine A2B radioligand binding competition assay: HEK-293-A2b cell membranes, 20 μg/well, preincubated 30 min at RT with […] Adenosine Deaminase; a binding buffer comprising HEPES 10 mM pH7.4, EDTA 1 mM, 0.5% BSA; a wash buffer comprising HEPES 10 mM pH7.4, EDTA 1 mM; a Unifilter GF/C—treated for 2 h with 0.5% PEI; and 10 nM ^3H-DPCPX as the tracer.
as §3

[5] = target: adenosine A1 receptor (Homo sapiens (Human), UniProt P30542); assay: Radioligand binding competition assay, adenosine A1 receptor (CHO-K1-A1 cell membranes); settings: 300 nM compound
Chain of adenosine A1 receptor (P30542 whole entry): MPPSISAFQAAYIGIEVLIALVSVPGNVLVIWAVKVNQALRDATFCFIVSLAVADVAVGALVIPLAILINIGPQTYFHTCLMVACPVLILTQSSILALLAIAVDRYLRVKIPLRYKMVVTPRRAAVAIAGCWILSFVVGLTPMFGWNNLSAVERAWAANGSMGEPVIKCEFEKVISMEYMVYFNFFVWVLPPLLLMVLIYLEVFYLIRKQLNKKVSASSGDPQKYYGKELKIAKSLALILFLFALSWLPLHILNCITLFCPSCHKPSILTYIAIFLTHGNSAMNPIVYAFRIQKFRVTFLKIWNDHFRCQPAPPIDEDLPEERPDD
Experimental: as §1, §2
For the adenosine A1 radioligand binding competition assay, a similar procedure was used except that the following reagents were used: CHO-K1-A1 cell membranes; binding buffer comprising HEPES 25 mM pH 7.4, MgCl2 5 mM, CaCl2 1 mM, NaCl 100 mM, saponin 10 µg/mL; wash buffer comprising HEPES 25 mM pH 7.4, MgCl2 5 mM, CaCl2 1 mM, NaCl 100 mM; Unifilter GF/B—treated for 2 h with 0.5% PEI was the filter; and 1.6 nM of ^3H-DPCPX was the tracer.
as §3

T1 sequence (P29274 whole entry): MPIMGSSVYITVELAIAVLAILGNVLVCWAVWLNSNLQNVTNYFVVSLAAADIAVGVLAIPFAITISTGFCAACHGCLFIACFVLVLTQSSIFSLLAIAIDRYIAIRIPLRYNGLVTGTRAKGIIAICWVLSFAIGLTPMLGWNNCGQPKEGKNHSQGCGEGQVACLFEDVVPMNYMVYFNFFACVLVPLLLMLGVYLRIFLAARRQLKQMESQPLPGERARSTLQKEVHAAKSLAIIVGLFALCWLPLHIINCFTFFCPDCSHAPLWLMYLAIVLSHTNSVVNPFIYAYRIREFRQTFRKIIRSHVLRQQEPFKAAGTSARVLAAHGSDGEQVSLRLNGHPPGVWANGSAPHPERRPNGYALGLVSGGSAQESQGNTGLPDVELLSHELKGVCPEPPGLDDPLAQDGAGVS

Row | Structure (SMILES) | inhibition at 0.1 µM ([1]; HEK293) [%] | Radioligand binding competition assay % residual binding @ 300 nM (A3) [2] [%] | IC50 [3] [nM] | A2A radioligand binding competition assay % residual binding @ 3000 nM ([3]; 3000 nM compound) | Radioligand binding competition assay % residual binding @ 300 nM (A2b) [4] [%] | Radioligand binding competition assay % residual binding @ 300 nM (A1) [5] [%] | IC50 [1] [nM] | A2A radioligand binding competition assay % residual binding @ 100 nM [3] [%] | A2A radioligand binding competition assay % residual binding @ 300 nM [3] [%] | A2A radioligand binding competition assay % residual binding @ 1000 nM [3] [%] | inhibition at 0.3 µM ([1]; HEK293, 300 nM compound, read-out: A2a cAMP % inh @ 300 nM) [%] | inhibition at 3 µM ([3]; 3000 nM compound, read-out: A2a binding % inh @ 3000 nM) [%]
1 | O=c1cc[nH]c2nc(-c3ccco3)c(-c3ccc4ncccc4c3)cc12 [Compound No. 1.14, 7-(furan-2-yl)-6-(quinolin-6-yl)-1,8-naphthyridin-4(1H)-one] | 94 | 87 | 33 | 5/ND/ND/ND % | 0 | 13 |  |  |  |  |  | 
2 | O=c1cc[nH]c2nc(-c3ccccc3)c(-c3ccc4ncsc4c3)cc12 [Compound No. 1.24, 6-(benzo[d]thiazol-6-yl)-7-phenyl-1,8-naphthyridin-4(1H)-one] | 83 |  |  | 16/ND/ND/ND % |  |  |  |  |  |  |  | 
3 | O=c1cc[nH]c2nc(-c3ccccc3)c(-c3ccc4ocnc4c3)cc12 [Compound No. 1.21, 6-(benzo[d]oxazol-5-yl)-7-phenyl-1,8-naphthyridin-4(1H)-one] | 45 |  |  | 54/ND/ND/ND % |  |  |  |  |  |  |  | 
4 | O=c1ccc2cc(-c3ccncc3)c(-c3ccccc3)nc2[nH]1 [Compound No. 1.34, 7-phenyl-6-(pyridin-4-yl)-1,8-naphthyridin-2(1H)-one] |  |  |  |  |  |  |  |  |  |  | 26 | 30
5 | O=c1cc[nH]c2nc(-c3ccccc3)c(-c3ccc4[nH]cnc4c3)cc12 [Compound No. 1.7, 6-(1H-benzo[d]imidazol-5-yl)-7-phenyl-1,8-naphthyridin-4(1H)-one] | 81 | 84 |  | 18% | 0 | 7 |  | 52 | 33 | 21 |  | 
6 | O=c1ccc2cc(-c3ccc4nccnc4c3)c(-c3ccccc3)nc2[nH]1 [Compound No. 1.10, 7-phenyl-6-(quinoxalin-6-yl)-1,8-naphthyridin-2(1H)-one] | 40 |  |  | 60/ND/ND/ND % |  |  |  |  |  |  |  | 

Other lines, results leading:

Row | inhibition at 0.1 µM ([1]; HEK293) [%] | Radioligand binding competition assay % residual binding @ 300 nM (A3) [2] [%] | IC50 [3] [nM] | A2A radioligand binding competition assay % residual binding @ 3000 nM ([3]; 3000 nM compound) | Radioligand binding competition assay % residual binding @ 300 nM (A2b) [4] [%] | Radioligand binding competition assay % residual binding @ 300 nM (A1) [5] [%] | IC50 [1] [nM] | A2A radioligand binding competition assay % residual binding @ 100 nM [3] [%] | A2A radioligand binding competition assay % residual binding @ 300 nM [3] [%] | A2A radioligand binding competition assay % residual binding @ 1000 nM [3] [%] | inhibition at 0.3 µM ([1]; HEK293, 300 nM compound, read-out: A2a cAMP % inh @ 300 nM) [%] | inhibition at 3 µM ([3]; 3000 nM compound, read-out: A2a binding % inh @ 3000 nM) [%] | Structure (SMILES)
7 |  | 95 |  |  | 17 | 1.6 | 61 | 83 | 54 |  |  |  | O=c1ccc2cc(-c3ccc(O)c(Cl)c3)c(-c3ccccc3)nc2[nH]1 [1.1, 6-(3-chloro-4-hydroxy-phenyl)-7-phenyl-1H-1,8-naphthyridin-2-one]
8 |  | 83 |  |  | 0 | 0 | 22 | 77 | 60 |  |  |  | O=c1cc[nH]c2nc(-c3ccccc3)c(-c3ccc(O)c(Cl)c3)cc12 [1.2, 6-(3-chloro-4-hydroxy-phenyl)-7-phenyl-1H-1,8-naphthyridin-4-one]
9 |  | 104 | 181 | 22% | 2 | 11 | 23 | 74 | 38 | 12 |  |  | O=c1cc[nH]c2nc(-c3ccccc3)c(-c3ccc4ncccc4c3)cc12 [1.5, 7-phenyl-6-(quinolin-6-yl)-1,8-naphthyridin-4(1H)-one]
